Earlier results, collected in PMC4237557 (Diabetes, Obesity & Metabolism, 2014).

What was measured:
[1] = test system: insulin-like growth factor 1 receptor (IGF-1R); details: in vitro
[2] = in vitro

For “21^A-Gly-des-30^B-Thr-human insulin [M2]”, the “Affinity for IGF-1R compared with human insulin” value [1] is given as “lower affinity”.
In the case of 21^A-Gly-human insulin [M1], the “Affinity for IGF-1R compared with human insulin” value [1] is listed as “lower affinity”, the “Mitogenicity compared with endogenous human insulin” value [2] is listed as “does not exhibit an increased affinity for IGF-1R or increased mitogenicity” and the “Glucose-lowering potency compared with parent glargine (M0)” value is listed as “equal glucose-lowering potency”.
